Experimental data: article PMC11831487, “Novel Naphthyridones Targeting Pannexin 1 for Colitis Management” (Advanced Science, 2024)

What was measured:
[1] = target: T1, Pannexin 1 (PANX1) (Homo sapiens, UniProt Q96RD7); experiment: To-Pro-3 uptake in HEK293T cells at […]; format: cell-based; design: C-terminally truncated hPANX1-CT-EGFP; conditions: HEK-293T; read-out: Mean ± SEM ^a)
[2] = target: T1, Pannexin 1 (PANX1); experiment: whole-cell voltage clamp in HEK293T cells (-50 mV); CETSA (Tagg […] to […] °C); format: cell-based; design: hPANX1(TEV)-EGFP cleaved by TEVp (currents); full-length hPANX1-FLAG (CETSA)

T1 sequence (Q96RD7 1-379 limits assumed): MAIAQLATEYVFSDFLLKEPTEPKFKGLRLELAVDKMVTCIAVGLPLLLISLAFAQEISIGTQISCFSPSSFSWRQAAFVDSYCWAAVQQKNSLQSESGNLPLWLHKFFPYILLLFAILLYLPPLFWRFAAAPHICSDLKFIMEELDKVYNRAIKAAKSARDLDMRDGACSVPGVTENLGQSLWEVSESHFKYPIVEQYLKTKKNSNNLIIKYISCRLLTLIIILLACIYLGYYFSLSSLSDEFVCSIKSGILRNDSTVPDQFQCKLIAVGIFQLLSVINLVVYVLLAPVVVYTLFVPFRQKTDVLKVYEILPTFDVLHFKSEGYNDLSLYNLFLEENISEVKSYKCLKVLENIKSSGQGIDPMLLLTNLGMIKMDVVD

Row | inhibition at 20 µM [1] [%] | IC50 [2] [nM] | SMILES
1 | 87.3 ± 1.3 | – | N[C@@H]1[C@H]2CN(c3nc4c(cc3F)c(=O)c(C(=O)O)cn4-c3ccc(F)cc3F)C[C@@H]12 [Trovan, trovafloxacin]
2 | – | ~730 | COc1ccc(Cn2cc(C(=O)O)c(=O)c3cc(F)c(N4CCN(C)CC4)nc32)c(OC)c1 [compound 12, lithium 1‐(2,4‐dimethoxybenzyl)−6‐fluoro‐7‐(4‐methylpiperazin‐1‐yl)−4‐oxo‐1,4‐dihydro‐1,8‐naphthyridine‐3‐carboxylate]
